Here are results for 19 molecules from ChEMBL document CHEMBL1150918, “Phospholipase Cgamma1 inhibitory principles from the sarcotestas of Ginkgo biloba” (J Nat Prod, 1998).

Broadly, the IC50 is the concentration that inhibits the measured activity by half. A higher IC50 goes with weaker potency in that assay.

The subject of assay [1] is MCF7. The assay is described as follows: Growth inhibition of human MCF7 cells after 2 days by SRB assay. The settings on record: MCF7, 48 h. It counts as functional, cell-based. For orientation: Sulforhodamine B stains cellular protein and so reports cell mass.
Assay [2] deals with HCT-15. Put plainly: Growth inhibition of human HCT15 cells after 2 days by SRB assay. As to conditions: HCT-15, 48 h. It counts as functional, cell-based.
The nature of assay [3]: Growth inhibition of human CCD-18Co cells after 2 days by SRB assay. It counts as cell-based. The settings on record: 48 h.
Assay [4] deals with T1, 1-phosphatidylinositol 4,5-bisphosphate phosphodiesterase gamma-1 (Bos taurus, UniProt P08487).
T1 sequence (P08487 whole entry): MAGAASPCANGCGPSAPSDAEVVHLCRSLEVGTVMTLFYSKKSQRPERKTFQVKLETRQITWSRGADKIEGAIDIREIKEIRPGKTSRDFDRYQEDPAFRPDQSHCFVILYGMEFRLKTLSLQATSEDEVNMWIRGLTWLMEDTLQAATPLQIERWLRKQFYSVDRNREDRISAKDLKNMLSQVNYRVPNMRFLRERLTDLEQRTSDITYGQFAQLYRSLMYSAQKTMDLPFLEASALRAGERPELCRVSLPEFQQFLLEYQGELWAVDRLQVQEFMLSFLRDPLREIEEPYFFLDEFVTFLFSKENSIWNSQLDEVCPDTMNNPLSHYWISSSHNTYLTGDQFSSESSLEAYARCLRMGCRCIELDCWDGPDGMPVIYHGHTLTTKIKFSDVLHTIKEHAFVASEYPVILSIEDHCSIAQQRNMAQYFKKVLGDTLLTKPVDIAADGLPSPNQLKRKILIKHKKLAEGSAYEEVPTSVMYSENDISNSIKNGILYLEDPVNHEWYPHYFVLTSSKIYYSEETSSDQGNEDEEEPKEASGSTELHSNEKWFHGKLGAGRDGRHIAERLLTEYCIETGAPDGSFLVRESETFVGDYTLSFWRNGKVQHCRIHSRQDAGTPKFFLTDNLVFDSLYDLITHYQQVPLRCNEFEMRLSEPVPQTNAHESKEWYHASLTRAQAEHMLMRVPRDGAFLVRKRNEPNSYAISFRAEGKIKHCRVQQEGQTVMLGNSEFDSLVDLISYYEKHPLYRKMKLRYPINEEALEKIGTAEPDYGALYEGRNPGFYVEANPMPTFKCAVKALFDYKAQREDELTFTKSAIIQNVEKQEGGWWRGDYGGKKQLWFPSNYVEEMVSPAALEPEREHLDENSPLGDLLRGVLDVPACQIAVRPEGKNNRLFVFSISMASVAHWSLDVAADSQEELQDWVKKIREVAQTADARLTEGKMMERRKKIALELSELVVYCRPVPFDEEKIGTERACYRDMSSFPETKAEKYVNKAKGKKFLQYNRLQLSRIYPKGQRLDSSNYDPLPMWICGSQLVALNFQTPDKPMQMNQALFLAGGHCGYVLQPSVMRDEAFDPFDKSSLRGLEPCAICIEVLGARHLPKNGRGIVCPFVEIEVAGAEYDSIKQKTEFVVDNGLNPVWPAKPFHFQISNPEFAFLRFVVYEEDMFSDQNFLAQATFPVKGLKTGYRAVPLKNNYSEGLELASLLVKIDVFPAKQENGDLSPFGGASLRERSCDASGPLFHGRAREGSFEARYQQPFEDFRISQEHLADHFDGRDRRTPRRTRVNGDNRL
The assay is described as follows: Inhibition of bovine brain PI-PLCgamma1.

Assay [5] has as its system HT1197. The assay is described as follows: Growth inhibition of human HT1197 cells after 2 days by SRB assay. The class given is functional, cell-based. As to conditions: HT1197, 48 h.
Assay [6] has as its system A549. Put plainly: Growth inhibition of human A549 cells after 2 days by SRB assay. It counts as functional, cell-based. As to conditions: A549, 48 h.
The test system of assay [7] is SK-OV-3. Put plainly: Growth inhibition of human SKOV3 cells after 2 days by SRB assay. The class given is functional, cell-based. As to conditions: SK-OV-3, 48 h.
The target in assay [8] is T2, 1-phosphatidylinositol 4,5-bisphosphate phosphodiesterase gamma-1 (Rattus norvegicus, UniProt P10686).
T2 sequence (P10686 whole entry): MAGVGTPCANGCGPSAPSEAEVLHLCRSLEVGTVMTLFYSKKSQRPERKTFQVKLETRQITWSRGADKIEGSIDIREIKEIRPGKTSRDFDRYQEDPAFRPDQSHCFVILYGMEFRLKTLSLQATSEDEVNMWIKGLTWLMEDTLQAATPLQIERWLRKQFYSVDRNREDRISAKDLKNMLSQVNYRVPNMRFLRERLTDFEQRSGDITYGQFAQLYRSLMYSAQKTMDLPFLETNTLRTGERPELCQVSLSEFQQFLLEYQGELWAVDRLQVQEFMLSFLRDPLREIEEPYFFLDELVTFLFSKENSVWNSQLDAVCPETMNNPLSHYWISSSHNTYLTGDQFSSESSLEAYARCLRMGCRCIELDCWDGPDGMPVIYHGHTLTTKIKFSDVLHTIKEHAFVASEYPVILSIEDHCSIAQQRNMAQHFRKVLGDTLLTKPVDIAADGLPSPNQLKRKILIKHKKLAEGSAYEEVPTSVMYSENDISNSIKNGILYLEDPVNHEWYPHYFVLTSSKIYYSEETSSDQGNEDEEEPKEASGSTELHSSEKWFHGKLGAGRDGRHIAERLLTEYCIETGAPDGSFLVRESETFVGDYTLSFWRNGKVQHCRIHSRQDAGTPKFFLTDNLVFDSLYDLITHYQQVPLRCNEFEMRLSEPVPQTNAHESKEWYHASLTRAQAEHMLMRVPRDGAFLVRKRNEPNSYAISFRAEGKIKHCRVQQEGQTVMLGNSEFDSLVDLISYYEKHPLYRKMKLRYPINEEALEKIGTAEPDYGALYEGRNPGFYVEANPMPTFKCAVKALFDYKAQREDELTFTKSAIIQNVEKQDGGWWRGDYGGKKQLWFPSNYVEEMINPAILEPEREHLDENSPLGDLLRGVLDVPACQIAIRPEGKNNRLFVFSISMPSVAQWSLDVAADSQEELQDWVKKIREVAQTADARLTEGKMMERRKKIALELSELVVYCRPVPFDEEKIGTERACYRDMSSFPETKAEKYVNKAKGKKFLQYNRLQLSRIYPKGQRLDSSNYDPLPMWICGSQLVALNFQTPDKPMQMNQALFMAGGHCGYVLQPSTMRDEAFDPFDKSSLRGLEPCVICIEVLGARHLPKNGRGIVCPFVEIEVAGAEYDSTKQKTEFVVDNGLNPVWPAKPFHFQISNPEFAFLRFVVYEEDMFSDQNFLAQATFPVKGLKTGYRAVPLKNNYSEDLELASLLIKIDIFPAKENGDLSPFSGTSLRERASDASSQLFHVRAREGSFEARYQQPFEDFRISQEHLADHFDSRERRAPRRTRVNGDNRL
Put plainly: Inhibition of rat brain PI-PLCgamma1.

Assay [9] in a line: Inhibition of pig brain PI-PLCgamma1. On the set-up: species or system Sus scrofa.

Structures are written as SMILES. Values after ≈ are worked out from the molar mass of the structure shown. Some results are limits rather than exact numbers.

Regarding `CCCCCCCCCCCCCc1cc(O)cc(O)c1`, the IC50 is 1.91 µg/mL (≈ 6.53 µM) in [1]; 15.3 µg/mL (≈ 52.4 µM) in assay [2]; > 100 µg/mL in assay [3]; 72.3 µM in assay [4]; 2.2 µg/mL (≈ 7.52 µM) in [5]; > 50 µg/mL in assay [6]. For the same molecule, in [7], the IC50 is > 50 µg/mL.
Turning to `O=c1cc(-c2ccc(O)c(-c3c(O)cc(O)c4c(=O)cc(-c5ccc(O)cc5)oc34)c2)oc2cc(O)cc(O)c12` [AMENTOFLAVONE], the IC50 in [4] turned out to be 29 µM.
In the case of `CCCCCC/C=C\CCCCCCCc1cccc(O)c1C(=O)O` [GINGKOLIC ACID], the IC50 in assay [1] is 6.44 µg/mL (≈ 18.6 µM); in [2] it was 12.7 µg/mL (≈ 36.7 µM); in assay [3] it was 97.1 µg/mL (≈ 280 µM); in assay [4], 5.66 µM; in assay [5] it was 46.3 µg/mL (≈ 134 µM); in [6] it was 31.3 µg/mL (≈ 90.3 µM). In addition, the IC50 in assay [7] is > 50 µg/mL.
In the case of `CCCCCC/C=C\CCCCCCCc1cccc(OC(C)=O)c1`, in assay [4], the IC50 was > 726 µM.
On the same count and under the same terms, under `Cc1cccc(O)c1` [METACRESOL] stands > 2310 µM.
Turning to `CCCCCC/C=C\CCCCCCCCCc1cccc(O)c1`, the IC50 in [1] came out at 7.19 µg/mL (≈ 21.8 µM); in assay [2] it was 32.9 µg/mL (≈ 99.5 µM); in assay [3], 66.4 µg/mL (≈ 201 µM); in [4] it was 9.73 µM; in assay [5] it was 20.8 µg/mL (≈ 63 µM); in assay [6] it was 11.8 µg/mL (≈ 35.7 µM).
In [4], `CCCCCC/C=C\CCCCCCCCCc1cc(O)cc(O)c1` registered a concentration for half-maximal inhibition (IC50) of 30.6 µM.
Still for that read-out and setting: the value for `O=C(O)c1ccccc1O` [SALICYLIC ACID] was 873 µM.
As for `CCCCCC/C=C\CCCCCCCCCc1cccc(O)c1C(=O)O` [GINKGOLIC ACID 17:1], the IC50 in assay [1] was 5.06 µg/mL (≈ 13.5 µM); in assay [2] it was 8.39 µg/mL (≈ 22.4 µM); in assay [4], 2.22 µM; in [5] it was 28.1 µg/mL (≈ 75.1 µM); in assay [6], 29.2 µg/mL (≈ 78 µM); in [7] it was > 50 µg/mL.
On to `CC(=O)c1cc2c(=O)c3c(C(=O)O)c(O)c(O)cc3oc2c(C(C)=O)c1-c1coc2cc(O)c(O)c(C(=O)O)c2c1=O` [VINAXANTHONE], for which the midpoint of inhibition in assay [8], the IC50, lay at 5.4 µM.
Molecule `CC(=O)O[C@@H]1[C@H](O[C@H](CO)[C@H](O)[C@@H](O)[C@@H](OC(C)=O)C(=O)O[C@H](C)CCCCCCCCCCCCCCCc2cccc(O)c2C(=O)O)O[C@H](CO)[C@@H](O)[C@@H]1O` [CALOPOROSIDE] gave an IC50 in [9] of 18 µM.
`C[C@@H]1CC[C@H]2[C@]13CC[C@@]1(C)O[C@]2(C)[C@@H](NCCCCN(C)CCCN(C)C)[C@H]1C3` [HISPIDOSPERMIDIN]: the IC50 in assay [8] came out at 16 µM.
As for `Cc1cc(O)cc(O)c1` [ORCINOL], the IC50 in assay [4] was > 2010 µM.
On the same count and under the same terms, the value for `CCCCCC/C=C\CCCCCCCc1cc(OC(C)=O)cc(OC(C)=O)c1` was > 621 µM.
In the case of `CCCCCCCCCCCCCc1cccc(O)c1`, the IC50 in assay [1] is 7.04 µg/mL (≈ 25.5 µM); in assay [2], 29.7 µg/mL (≈ 107 µM); in [3] it was 73.2 µg/mL (≈ 265 µM); in assay [4], 57.8 µM; in [5] it was 14.6 µg/mL (≈ 52.7 µM); in assay [6] it was 25.9 µg/mL (≈ 93.7 µM). In addition, the IC50 in assay [7] was > 50 µg/mL.
On to `CCCCCC/C=C\CCCCCCCc1cccc(OC(C)=O)c1C(=O)OC`, for which the IC50 in assay [4] was > 621 µM.
As to `CCCCCCCCCCCCCc1cccc(O)c1C(=O)O` [GINKGOLIC ACID 13:0], the IC50 in assay [1] is 22.7 µg/mL (≈ 70.7 µM); in [2], > 50 µg/mL; in [3], 59.1 µg/mL (≈ 184 µM); in assay [4], 16.3 µM; in assay [5], 44.6 µg/mL (≈ 139 µM); in [6], > 50 µg/mL. The same molecule showed an IC50 in [7] of 20.4 µg/mL (≈ 63.7 µM).
`CCCCCC/C=C\CCCCCCCc1cccc(O)c1C(=O)OC`: the IC50 in assay [4] was > 693 µM.
Regarding `CCCCCCCCCCCCCCCc1cccc(O)c1`, the IC50 turned out to be 8.71 µg/mL (≈ 28.6 µM) in [1]; 31.9 µg/mL (≈ 105 µM) in assay [2]; 58 µM in assay [4]; 41.8 µg/mL (≈ 137 µM) in [5]; 11.9 µg/mL (≈ 39.1 µM) in [6].
